Results on seven compounds are retold here after patent US20260022098A1, “BULLEYACONITINE A DERIVATIVE WITH ANALGESIC ACTIVITY, AND PREPARATION METHOD AND APPLICATION THEREOF” (priority 2023, published 2026).

The test system of data set [1] is Kunming mice. Description: Calculation of therapeutic index (TI = LD50/ED50). Type of data set: in vivo. As to the method:
(3) Calculation of Therapeutic Index (TI)
The therapeutic index of each compound was calculated based on the median effective dose and the median lethal dose, which were specifically as follows: therapeutic index (TI)=median lethal dose (LD50)/median effective dose (ED50).

Data set [2] relates to LPS-induced RAW 264.7 cells. Description: Griess assay, inhibition of NO release in LPS-induced RAW 264.7 cells. To be noted: Griess method, compound at 30 M (so in the source), 22 h. Type of data set: cell-based. How it is done: (§1) The effect of the compound to be tested on viability of RAW 264.7 cells at a concentration of […] was assessed through MTT assay (Methylthiazolyldiphenyl-tetrazolium bromide assay), and the inhibition on NO release in the inflammatory response of LPS-induced RAW 264.7 cells at 30 µM was determined through Griess method. Specific methods were described as follows.
RAW264.7 cells beyond third passage were added to a culture medium and gently pipetted to detach, forming a cell suspension. 10 μL of the cell suspension was applied onto a hemocytometer slide for counting, and cells were seeded into a 96-well plate at a density of 3×10^4 cells per well with 100 μL of the cell suspension per well. After incubated at 37° C. with […] for 24 h, supernatant was removed. The blank group received 100 μL of DMSO (1/1000 dilution) per well, a LPS (lipopolysaccharide) group received 100 μL of DMSO (1/1000 dilution) per well, and the experimental groups received 100 μL of the test samples per well. The LPS group received 1 μg/ml of LPS by […] per well, and the experimental groups received […] of LPS by 3 μg per well. After 22 h, 50 μL of supernatant was transferred into another 96-well plate, added with Griess Reagent I in a NO assay kit by 50 μL per well, then added with Griess Reagent II by 50 μL per well, and subjected to an absorbance test at 562 nm. Nitric oxide (NO) concentration was calculated based on a standard curve, which was specifically as follows: NO inhibition rate (%)=(ODLPS−ODTest)/(ODLPS−ODBlank)×100).
Background: The Griess reaction detects nitrite, a stable product of nitric oxide.

Data set [3] concerns Kunming mice. Description: Analgesic activity by acetic acid-induced writhing method (writhing inhibition rate, ED50). The format is in vivo. The note with it: Mus musculus, sc, acetic acid-induced writhing, mice, subcutaneous; for ED50: Probit regression, read-out: ED50; for inhibition in vivo at 0.05 mg/kg: dosing concentration 0.05 mg/kg; for inhibition in vivo at 0.05 mg/kg / inhibition in vivo at 0.5 mg/kg: read-out: Analgesia rate (%) ± SEM; for inhibition in vivo at 0.5 mg/kg: dosing concentration 0.5 mg/kg. In outline:
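Kunming mice (22±2 g, 1:1 sex, 12 h fasted, 10/group) got compound s.c. (dissolved 1:1 molar with 0.1 mol/L HCl, diluted in saline); 0.7% acetic acid i.p. 15 min later, writhes counted over 15 min. Inhibition rate vs saline blank; ED50 by Probit regression over ≥5 doses.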
For orientation: An intraperitoneal irritant provokes the stretching counted in writhing tests.

A further data set concerns RAW 264.7 cells. The data set can be described thus: MTT assay, viability of RAW 264.7 cells. The format is cell-based. To be noted: compound diluted to 30 mol/L (so in the source), 12 h. As to the method:
as §1
An MTT solution (5 mg/mL) was prepared with a PBS buffer, filter-sterilized through a 0.22 μm filter membrane, and stored protected from light at low temperature. Each compound was dissolved in DMSO to prepare a 50 mmol/L stock solution, and stored from light at low (frozen) temperature. The stock solution was diluted to 30 mol/L with DMEM (Dulbecco's modified Eagle's medium) containing 10% FBS (fetal bovine serum). RAW264.7 cells beyond third passage were added to a culture medium and gently pipetted to detach, forming a cell suspension. 10 μL of the cell suspension was applied onto a hemocytometer slide for counting, and cells were seeded into 96-well plates at a density of 6×10^3 cells per well with 100 μL of the cell suspension per well. After incubated at 37° C. with 5% CO2 for 24 h, supernatant was removed. A zero-adjustment group (CO group) received 100 μL of medium per well, the blank group (CK group) received 100 μL of DMSO (1/1000 dilution) per well, and the experimental groups received 100 μL of the test samples per well. After 12 h, supernatant was removed, and […] of MTT solution was added into each well at 120 μL per well. After incubated in COz at a constant temperature for 4 h, supernatant was removed, and DMSO was added into each well by 150 μL per well. The mixture was shaken at 50 r/min for 10 min and subjected to an absorbance test at 492 nm. Relative cell viability (x) was calculated through a formula as follows: relative cell viability (%)=(ODTest−ODCO)/(ODCK−ODCO)×100%.
(Tetrazolium dyes change colour on reduction, which living cells bring about.)

Data set [4] in a line: Acute toxicity / median lethal dose (LD50) determination, subcutaneous injection. Type of data set: in vivo, mice. Also noted: key to Acute toxicity: if death occurred, (+) represented as positive; if no death occurred, (−) represented as negative. To be noted: both sexes, Kunming, mouse, in vivo, sc; mice, subcutaneous, survival within 24 h, Probit regression; >X = no death or toxic symptoms at X mg/kg. Put shortly:
(§2)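 Kunming mice (22±2 g, 1:1 male:female, fasted 12 h), 10 per group, given compound subcutaneously at 0.1 mL/10 g in saline after 1:1 molar dissolution in 0.1 mol/L HCl. At least 5 proportional dose groups set from a 20 mg/kg pilot; 24 h survival, LD50 by Probit regression.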

Data set [5] deals with Kunming mice. The data set is described as above. Type of data set: in vivo. Also noted: key to Acute toxicity: if death occurred, (+) represented as positive; if no death occurred, (−) represented as negative. To be noted: mice administered 20 mg/kg subcutaneously, presence of death within 24 h. Put shortly: as §2

Some results are limits rather than exact numbers.

A word on the ED50: it is the dose at which the effect has come halfway, by size or by number of responders. As a reminder, the LD50 is the dose at which mortality reaches 50%. As to `CCO[C@]12C[C@H](OC)[C@@]3(OC(=O)c4ccco4)CC(C1[C@H]3OC(=O)c1ccco1)[C@]13C4[C@@H](OC)C2[C@H]1N(CC)C[C@]4(COC)CC[C@@H]3OC` (some centres unmarked) [Compound 6], the TI in the data set with Kunming mice [1] is reported as above 8695.7. For the same compound, the “Inflammatory NO inhibition rate” value in data set [2] worked out at 22 ± 4.41 %. Further, in the data set with Kunming mice [3], the ED50 was 0.069 mg/kg and the inhibition in vivo at 0.05 mg/kg is 59.8 ± 2.3%. Further, the RAW cell viability in the data set on RAW 264.7 cells was 92.23 ± 1.29 ns %. This compound also yielded an LD50 in data set [4] above 600 mg/kg. The Acute toxicity entry with Kunming mice [5] is “−”.

Regarding `CCO[C@]12C[C@H](OC)[C@@]3(OC(=O)c4ccco4)CC(C1[C@H]3OC(=O)c1ccc(OC)cc1)[C@]13C4[C@@H](OC)C2[C@H]1N(CC)C[C@]4(COC)CC[C@@H]3OC` (some centres unmarked) [Compound 15], the TI in the data set with Kunming mice [1] is listed as 773. Also, the “Inflammatory NO inhibition rate” value in data set [2] came to 5 ± 2.17 %. In the data set with Kunming mice [3], the ED50 worked out at 0.073 mg/kg and the inhibition in vivo at 0.05 mg/kg is 57.6 ± 1.3%. For the same compound, the RAW cell viability in the data set with RAW 264.7 cells was found to be 104.18 ± 6.16 ns %. In data set [4], this compound returned an LD50 of 56.4 mg/kg. Moreover, in the data set on Kunming mice [5], the Acute toxicity entry is “−”.

`CCO[C@]12C[C@H](OC)[C@@]3(OC(=O)c4cccnc4)CC(C1[C@H]3OC(=O)c1cccnc1)[C@]13C4[C@@H](OC)C2[C@H]1N(CC)C[C@]4(COC)CC[C@@H]3OC` (some centres unmarked) [Compound 27]: in the data set with Kunming mice [1], the TI is on record as above 18181.8. Moreover, in data set [2], the “Inflammatory NO inhibition rate” value amounted to 7 ± 2.16 %. In the data set with Kunming mice [3], the 50% effective dose (ED50) amounted to 0.033 mg/kg and the inhibition in vivo at 0.05 mg/kg stood at 62 ± 1.6%. The RAW cell viability in the data set on RAW 264.7 cells was 87.20 ± 7.66 ^ %. This compound also returned an LD50 in data set [4] above 600 mg/kg. Moreover, in the data set with Kunming mice [5], the Acute toxicity entry was “−”.

With `CCN1C[C@]2(COC)CC[C@H](OC)[C@@]34C5C[C@]6(OC(=O)c7cccnc7)[C@@H](OC)C[C@@](OC(C)=O)(C5[C@H]6OC(=O)c5ccc(OC)cc5)C([C@H](OC)C23)[C@@H]14` (some centres unmarked) [Compound 29], in the data set on Kunming mice [1], the TI is 27.9. The “Inflammatory NO inhibition rate” value in data set [2] is 20 ± 1.12 %. Further, in the data set with Kunming mice [3], the median effective dose (ED50) is 1.48 mg/kg, the inhibition in vivo at 0.05 mg/kg amounted to 47.9 ± 1.8% and the inhibition in vivo at 0.5 mg/kg amounted to 65.6 ± 1.3%. Also, the RAW cell viability in the data set on RAW 264.7 cells is 116.43 ± 15.6 ^ %. This compound also yielded an LD50 in data set [4] of 41.2 mg/kg. For the same compound, in the data set on Kunming mice [5], the Acute toxicity entry is given as “−”.

In the case of `CCO[C@]12C[C@H](OC)[C@@]3(OC(=O)c4ccccc4)CC(C1[C@H]3OC(=O)c1ccccc1)[C@]13C4[C@@H](OC)C2[C@H]1N(CC)C[C@]4(COC)CC[C@@H]3OC` (some centres unmarked) [Compound 52], the TI in the data set on Kunming mice [1] was above 208.8. For the same compound, in the data set with Kunming mice [3], the ED50 stood at 0.479 mg/kg, the inhibition in vivo at 0.05 mg/kg is 47 ± 1.8% and the inhibition in vivo at 0.5 mg/kg came out at 64.2 ± 1.3%. In addition, in the data set with RAW 264.7 cells, the RAW cell viability came out at 7.00 ± 0.98 %. The same compound displayed an LD50 in data set [4] above 100 mg/kg. Further, the Acute toxicity entry with Kunming mice [5] is reported as “−”.

Turning to `CCO[C@]12C[C@H](OC)[C@@]3(OC(=O)c4ccc(F)cc4)CC(C1[C@H]3OC(=O)c1ccc(OC)cc1)[C@]13C4[C@@H](OC)C2[C@H]1N(CC)C[C@]4(COC)CC[C@@H]3OC` (some centres unmarked) [Compound 60], in the data set on Kunming mice [1], the TI is recorded as above 819.7. The “Inflammatory NO inhibition rate” value in data set [2] is on record as 2 ± 2.82 %. Moreover, in the data set with Kunming mice [3], the median effective dose (ED50) was 0.122 mg/kg and the inhibition in vivo at 0.05 mg/kg amounted to 50 ± 1.4%. Moreover, the RAW cell viability in the data set on RAW 264.7 cells amounted to 96.09 ± 7.95 ns %. In data set [4], this compound registered an LD50 above 100 mg/kg. The Acute toxicity entry in the data set with Kunming mice [5] is listed as “−”.

As for `CCO[C@]12C[C@H](OC)[C@@]3(OC(=O)CC(C)(C)C)CC(C1[C@H]3OC(=O)CC(C)(C)C)[C@]13C4[C@@H](OC)C2[C@H]1N(CC)C[C@]4(COC)CC[C@@H]3OC` (some centres unmarked) [Compound 88], in the data set with Kunming mice [1], the TI is above 621.1. Moreover, in the data set with Kunming mice [3], the 50% effective dose (ED50) was determined as 0.161 mg/kg, the inhibition in vivo at 0.05 mg/kg came to 47.7 ± 0.6% and the inhibition in vivo at 0.5 mg/kg amounted to 65.07 ± 0.6%. Besides, the RAW cell viability with RAW 264.7 cells was found to be 74.05 ± 10.06 %. In data set [4], the 50% lethal dose (LD50) is above 100 mg/kg. Also, in the data set on Kunming mice [5], the Acute toxicity entry was “−”.
